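Interpolation was linear, between the two tested concentrations surrounding the appropriate level; five concentrations were tested over 48 hours in 96-well plates. Abbreviation: GI50, concentration required for 50% inhibition of growth.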 Activity calls are given as the source filed them. Rule as the data show it: active = GI50 up to about 1.1 µM and inactive = higher.
How the values were obtained:
Assay in all cases: inhibition of tumour cell growth, NCI panel, 48 h
SF-295 = tested on: SF-295
LOX IMVI = tested on: LOX IMVI
IGROV-1 = tested on: IGROV-1
MOLT-4 = tested on: MOLT-4
NCI-H23 = tested on: NCI-H23
EKVX = tested on: EKVX
UO-31 = tested on: UO-31
NCI/ADR-RES = tested on: NCI/ADR-RES
HL-60 = tested on: HL-60
U-251 = tested on: U-251
MDA-MB-435 = tested on: MDA-MB-435
RXF 393 = tested on: RXF 393
NCI-H522 = tested on: NCI-H522
SK-MEL-5 = tested on: SK-MEL-5
K562 = tested on: K562
OVCAR-5 = tested on: OVCAR-5
SK-OV-3 = tested on: SK-OV-3
PC-3 = tested on: PC-3
HCT-116 = tested on: HCT-116
Hs-578T = tested on: Hs-578T
M14 = tested on: M14
NCI-H226 = tested on: NCI-H226
UACC-257 = tested on: UACC-257
Malme-3M = tested on: Malme-3M
DU-145 = tested on: DU-145
MDA-N = tested on: MDA-N
CCRF-CEM = tested on: CCRF-CEM
OVCAR-4 = tested on: OVCAR-4
786-0 = tested on: 786-0
HT-29 = tested on: HT-29
COLO 205 = tested on: COLO 205
BT-549 = tested on: BT-549
T47D = tested on: T47D
HOP-92 = tested on: HOP-92
MDA-MB-231 = tested on: MDA-MB-231
SR = tested on: SR
NCI-H460 = tested on: NCI-H460
HCC 2998 = tested on: HCC 2998
SNB-19 = tested on: SNB-19
SW-620 = tested on: SW-620
CAKI-1 = tested on: CAKI-1
RPMI-8226 = tested on: RPMI-8226
SK-MEL-28 = tested on: SK-MEL-28
UACC-62 = tested on: UACC-62
OVCAR-8 = tested on: OVCAR-8
TK-10 = tested on: TK-10
SN12C = tested on: SN12C
SK-MEL-2 = tested on: SK-MEL-2
SF-268 = tested on: SF-268
A549 = tested on: A549
HOP-62 = tested on: HOP-62
MCF7 = tested on: MCF7
HCT-15 = tested on: HCT-15
A498 = tested on: A498
ACHN = tested on: ACHN
KM12 = tested on: KM12
SNB-75 = tested on: SNB-75
OVCAR-3 = tested on: OVCAR-3
SF-539 = tested on: SF-539

Q: Which results are given for `CC1=C(C)C2(C#N)C(=O)N3C(=NC(c4ccccc4)NC3c3ccccc3)C2(C#N)C(c2ccccc2)N1` (centres undefined)?
A: GI50 (SF-295): > 100 µM (inactive); GI50 (LOX IMVI): > 100 µM (inactive); GI50 (IGROV-1): > 100 µM (inactive); GI50 (MOLT-4): > 100 µM (inactive); GI50 (NCI-H23): > 100 µM (inactive); GI50 (EKVX): > 100 µM (inactive); GI50 (UO-31): > 100 µM (inactive); GI50 (NCI/ADR-RES): > 100 µM (inactive); GI50 (HL-60): > 100 µM (inactive); GI50 (U-251): > 100 µM (inactive); GI50 (MDA-MB-435): > 100 µM (inactive); GI50 (RXF 393): > 100 µM (inactive); GI50 (NCI-H522): > 100 µM (inactive); GI50 (SK-MEL-5): > 100 µM (inactive); GI50 (K562): > 100 µM (inactive); GI50 (OVCAR-5): > 100 µM (inactive); GI50 (SK-OV-3): > 100 µM (inactive); GI50 (PC-3): > 100 µM (inactive); GI50 (HCT-116): > 100 µM (inactive); GI50 (Hs-578T): > 100 µM (inactive); GI50 (M14): > 100 µM (inactive); GI50 (NCI-H226): > 100 µM (inactive); GI50 (UACC-257): > 100 µM (inactive); GI50 (Malme-3M): > 100 µM (inactive); GI50 (DU-145): > 100 µM (inactive); GI50 (MDA-N): > 100 µM (inactive); GI50 (CCRF-CEM): > 100 µM (inactive); GI50 (OVCAR-4): > 100 µM (inactive); GI50 (786-0): > 100 µM (inactive); GI50 (HT-29): > 100 µM (inactive); GI50 (COLO 205): > 100 µM (inactive); GI50 (BT-549): > 100 µM (inactive); GI50 (T47D): > 100 µM (inactive); GI50 (HOP-92): > 100 µM (inactive); GI50 (MDA-MB-231): > 100 µM (inactive); GI50 (SR): > 100 µM (inactive); GI50 (NCI-H460): > 100 µM (inactive); GI50 (HCC 2998): > 100 µM (inactive); GI50 (SNB-19): > 100 µM (inactive); GI50 (SW-620): > 100 µM (inactive); GI50 (CAKI-1): > 100 µM (inactive); GI50 (RPMI-8226): > 100 µM (inactive); GI50 (SK-MEL-28): > 100 µM (inactive); GI50 (UACC-62): > 100 µM (inactive); GI50 (OVCAR-8): > 100 µM (inactive); GI50 (TK-10): > 100 µM (inactive); GI50 (SN12C): > 100 µM (inactive); GI50 (SK-MEL-2): > 100 µM (inactive); GI50 (SF-268): > 100 µM (inactive); GI50 (A549): > 100 µM (inactive); GI50 (HOP-62): > 100 µM (inactive); GI50 (MCF7): > 100 µM (inactive); GI50 (HCT-15): > 100000 nM; GI50 (A498): > 100 µM (inactive); GI50 (ACHN): > 100 µM (inactive); GI50 (KM12): > 100 µM (inactive)

Q: For `CC(=O)OCCOc1cc2c([nH]c3ccccc32)c(C)c2cccc1-2`, which GI50 (SF-295) is on record?
A: The GI50 was 3.28 µM (inactive).

Q: What about the GI50 (LOX IMVI) of the same molecule?
A: Its GI50 is 2.61 µM (inactive).

Q: And the GI50 (IGROV-1)?
A: Its GI50 is 1.77 µM (inactive).

Q: What about the GI50 (MOLT-4) of the same molecule?
A: Its GI50 is 3.33 µM (inactive).

Q: And the GI50 (NCI-H23)?
A: Its GI50 is 1.94 µM (inactive).

Q: And the GI50 (EKVX)?
A: The GI50 was 1.86 µM (inactive).

Q: And the GI50 (UO-31)?
A: Its GI50 is 1.75 µM (inactive).

Q: What about the GI50 (NCI/ADR-RES) of the same molecule?
A: Its GI50 is 3.53 µM (inactive).

Q: What about the GI50 (HL-60) of the same molecule?
A: Its GI50 is 3.05 µM (inactive).

Q: And the GI50 (U-251)?
A: The GI50 was 1.69 µM (inactive).

Q: What about the GI50 (MDA-MB-435) of the same molecule?
A: The GI50 was 2.29 µM (inactive).

Q: What about the GI50 (RXF 393) of the same molecule?
A: Its GI50 is 1.95 µM (inactive).

Q: And the GI50 (NCI-H522)?
A: The GI50 was 1.84 µM (inactive).

Q: And the GI50 (SK-MEL-5)?
A: Its GI50 is 2.77 µM (inactive).

Q: And the GI50 (K562)?
A: Its GI50 is 1.36 µM (inactive).

Q: What about the GI50 (OVCAR-5) of the same molecule?
A: The GI50 was 2.97 µM (inactive).

Q: What about the GI50 (SK-OV-3) of the same molecule?
A: The GI50 was 4.3 µM (inactive).

Q: And the GI50 (PC-3)?
A: The GI50 was 1.76 µM (inactive).

Q: And the GI50 (HCT-116)?
A: Its GI50 is 3.3 µM (inactive).

Q: What about the GI50 (SNB-75) of the same molecule?
A: Its GI50 is 1.71 µM (inactive).

Q: What about the GI50 (Hs-578T) of the same molecule?
A: The GI50 was 3.47 µM (inactive).

Q: And the GI50 (OVCAR-3)?
A: The GI50 was 2.01 µM (inactive).

Q: And the GI50 (M14)?
A: Its GI50 is 2.48 µM (inactive).

Q: And the GI50 (NCI-H226)?
A: The GI50 was 10.3 µM (inactive).

Q: And the GI50 (UACC-257)?
A: Its GI50 is 1.91 µM (inactive).

Q: And the GI50 (Malme-3M)?
A: Its GI50 is 2.11 µM (inactive).

Q: And the GI50 (DU-145)?
A: Its GI50 is 4.16 µM (inactive).

Q: And the GI50 (MDA-N)?
A: Its GI50 is 3.16 µM (inactive).

Q: What about the GI50 (CCRF-CEM) of the same molecule?
A: The GI50 was 3.38 µM (inactive).

Q: What about the GI50 (OVCAR-4) of the same molecule?
A: The GI50 was 1.77 µM (inactive).

Q: What about the GI50 (786-0) of the same molecule?
A: Its GI50 is 2.84 µM (inactive).

Q: And the GI50 (HT-29)?
A: The GI50 was 3.78 µM (inactive).

Q: And the GI50 (COLO 205)?
A: Its GI50 is 1.7 µM (inactive).

Q: What about the GI50 (BT-549) of the same molecule?
A: Its GI50 is 2.75 µM (inactive).

Q: And the GI50 (T47D)?
A: The GI50 was 1.92 µM (inactive).

Q: What about the GI50 (HOP-92) of the same molecule?
A: Its GI50 is 1.86 µM (inactive).

Q: What about the GI50 (MDA-MB-231) of the same molecule?
A: The GI50 was 1.66 µM (inactive).

Q: And the GI50 (SR)?
A: The GI50 was 2.92 µM (inactive).

Q: And the GI50 (NCI-H460)?
A: Its GI50 is 2.59 µM (inactive).

Q: And the GI50 (SNB-19)?
A: Its GI50 is 3.3 µM (inactive).

Q: And the GI50 (SW-620)?
A: Its GI50 is 2.7 µM (inactive).

Q: What about the GI50 (CAKI-1) of the same molecule?
A: The GI50 was 2.12 µM (inactive).

Q: And the GI50 (RPMI-8226)?
A: Its GI50 is 2.43 µM (inactive).

Q: And the GI50 (SK-MEL-28)?
A: The GI50 was 2.58 µM (inactive).

Q: And the GI50 (UACC-62)?
A: Its GI50 is 2.39 µM (inactive).

Q: What about the GI50 (OVCAR-8) of the same molecule?
A: The GI50 was 2.59 µM (inactive).

Q: And the GI50 (TK-10)?
A: The GI50 was 2.2 µM (inactive).

Q: What about the GI50 (SN12C) of the same molecule?
A: The GI50 was 3.01 µM (inactive).

Q: What about the GI50 (SK-MEL-2) of the same molecule?
A: The GI50 was 2.21 µM (inactive).

Q: And the GI50 (SF-268)?
A: Its GI50 is 2.47 µM (inactive).

Q: And the GI50 (A549)?
A: The GI50 was 3.85 µM (inactive).

Q: What about the GI50 (SF-539) of the same molecule?
A: Its GI50 is 1.91 µM (inactive).

Q: And the GI50 (HOP-62)?
A: Its GI50 is 4.6 µM (inactive).

Q: And the GI50 (MCF7)?
A: Its GI50 is 2.94 µM (inactive).

Q: What about the GI50 (HCT-15) of the same molecule?
A: The GI50 was 2940 nM.

Q: And the GI50 (A498)?
A: The GI50 was 8.93 µM (inactive).

Q: What about the GI50 (ACHN) of the same molecule?
A: The GI50 was 1.75 µM (inactive).

Q: And the GI50 (KM12)?
A: The GI50 was 2.34 µM (inactive).
